Data taken from patent US6447748B1, “Benzamide compounds for cancer imaging and therapy” (Research Corporation Technologies, Inc., priority 1993, dated 2002).

Assay: Biodistribution of 2-[125I]BP and 3-[125I]BP in Sprague Dawley rats
Format: in vivo
Settings: for Biodistribution Blood / Biodistribution Brain / Biodistribution Heart / Biodistribution Kidney / Biodistribution Liver / Biodistribution Lung / Biodistribution Muscle / Biodistribution Spleen / Biodistribution Thyroid: average of four rats
Method: A similar procedure was performed with 2-[^125I]BP and 3-[^125I]BP but blood samples were only collected at 1, 6 and 24 hours.

## O=C(NC1CCN(Cc2ccccc2)CC1)c1ccccc1[125I] [2-[^125I]BP, ^125I-(N-benzylpiperidin-4-yl)-2-iodobenzamide]
  clearance: fast clearance from the blood and normal organs
1 hr.
  Biodistribution Blood: 2.06 ± 0.42 % ID/whole organ
  Biodistribution Brain: 0.48 ± 0.12 % ID/whole organ
  Biodistribution Heart: 0.17 ± 0.03 % ID/whole organ
  Biodistribution Kidney: 1.68 ± 0.08 % ID/whole organ
  Biodistribution Liver: 22.36 ± 1.29 % ID/whole organ
  Biodistribution Lung: 1.06 ± 0.21 % ID/whole organ
  Biodistribution Muscle: 16.15 ± 2.13 % ID/whole organ
  Biodistribution Spleen: 0.32 ± 0.07 % ID/whole organ
  Biodistribution Thyroid: 0.14 ± 0.04 % ID/whole organ
6 hr.
  Biodistribution Blood: 1.30 ± 0.12 % ID/whole organ
  Biodistribution Brain: 0.05 ± 0.01 % ID/whole organ
  Biodistribution Heart: 0.05 ± 0.00 % ID/whole organ
  Biodistribution Kidney: 0.39 ± 0.06 % ID/whole organ
  Biodistribution Liver: 6.07 ± 0.18 % ID/whole organ
  Biodistribution Lung: 0.21 ± 0.02 % ID/whole organ
  Biodistribution Muscle: 6.75 ± 0.32 % ID/whole organ
  Biodistribution Spleen: 0.12 ± 0.01 % ID/whole organ
  Biodistribution Thyroid: 1.91 ± 0.23 % ID/whole organ
24 hr.
  Biodistribution Blood: 0.50 ± 0.05 % ID/whole organ
  Biodistribution Brain: 0.01 ± 0.00 % ID/whole organ
  Biodistribution Heart: 0.01 ± 0.00 % ID/whole organ
  Biodistribution Kidney: 0.05 ± 0.01 % ID/whole organ
  Biodistribution Liver: 0.59 ± 0.02 % ID/whole organ
  Biodistribution Lung: 0.04 ± 0.00 % ID/whole organ
  Biodistribution Muscle: 1.95 ± 0.11 % ID/whole organ
  Biodistribution Spleen: 0.02 ± 0.00 % ID/whole organ
  Biodistribution Thyroid: 2.11 ± 0.35 % ID/whole organ
